In patent publication US11879001B2, “Conjugate comprising an IL-2 moiety” (ASCENDIS PHARMA ONCOLOGY DIVISION A/S, priority 2020, dated 2024):
“And” between values parts separate entries of the source, which are not always exact repeats. Identical values can stand only once. Values belong to the substance of their own block, whether it stands above or below them.

Legend:
[1] = test system: peripheral blood lymphocytes and eosinophils; test: Peripheral blood lymphocyte and eosinophil counts (hematology analyzers) in treated Cynos; format: in vivo, Cynomolgus macaques; conditions: ~0.044 mg/kg IV x5 daily
Description: (§1) Two studies were conducted to measure the pharmacodynamic effects of either Aldesleukin (Prometheus, National Drug Code 65483011607) (SEQ ID NO:15) 11 or 5 in Cynos. In the first study, four Cynos ranging in weight from 7.77-10.6 kg (average 9.2 kg) were treated intravenously with five sequential daily 0.4 mg doses of 11 on days 1-5 (average mg/kg: 0.044). In the second study, four Cynos ranging in weight from 2.46-3.69 kg (average 3.13 kg) were treated with a single intravenous dose of either 0.1 mg/kg (n=2) or 0.3 mg/kg (n=2) of 5. All animals were chair trained prior to the study. For both studies, peripheral blood samples were taken before and after treatment at various timepoints as indicated and analyzed for lymphocyte counts, eosinophil counts and cytokines. For animals treated with 5, additional flow cytometry experiments were performed. For measurements of (absolute) lymphocyte counts and eosinophil counts, whole blood was processed on hematology analyzers. For IL-5 and IL-6 cytokine measurements, serum was processed from whole blood and analyzed by ELISA or MSD. For flow cytometry measurements (Immunophenotyping, IPT, FACS), Cynomolgus monkey whole blood was collected in EDTA anticoagulant and kept at room temperature until processed for flow cytometry. Blood was lysed and samples were stained for extracellular surface markers and intracellular phenotypic and lineage markers by standard methods. Cell populations were analyzed using the following phenotypes and gated for percentage of cells which were positive for proliferation marker Ki67.

IL-5 = test: Serum IL-5 cytokine levels (ELISA or MSD) in treated Cynos; format: in vivo, Cynomolgus macaques; conditions: ~0.044 mg/kg IV x5 daily
Description: as §1, with “For flow cytometry measurements (Immunophenotyping, IPT, FACS), Cynomolgus monkey whole blood was collected in EDTA anticoagulant and kept at room temperature until processed for flow cytometry. Blood was lysed and samples were stained for extracellular surface markers and intracellular phenotypic and lineage markers by standard methods.” left out

IL-6 = test: Serum IL-6 cytokine levels (ELISA or MSD) in treated Cynos; format: in vivo, Cynomolgus macaques; conditions: ~0.044 mg/kg IV x5 daily
Description: as §1

human IL-2Rα = target: T1, human IL-2Rα (Homo sapiens, UniProt P01589); test: Biacore binding to human IL-2Rα-Fc; conditions: independent measurement
T1 construct: purchased
T1 sequence (P01589 22-272): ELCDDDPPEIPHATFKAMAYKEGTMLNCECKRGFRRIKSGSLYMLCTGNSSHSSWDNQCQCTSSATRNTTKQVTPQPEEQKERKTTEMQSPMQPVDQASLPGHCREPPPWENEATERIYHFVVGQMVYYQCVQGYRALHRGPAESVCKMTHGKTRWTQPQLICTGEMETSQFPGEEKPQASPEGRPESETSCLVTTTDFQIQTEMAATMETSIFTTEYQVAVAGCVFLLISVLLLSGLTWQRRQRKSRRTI
Description: (§2) Binding affinity/kinetics needed to determine the KD of biased IL-2 to IL-2Rα, the KD of biased IL-2 to IL-2Rβ, the KD of aldesleukin to IL-2Rα and the KD of aldesleukin to IL-2Rβ may be assessed using surface plasmon resonance (SPR), measured on a Biacore instrument (GE Healthcare) as follows: A human Fc capture surface on a CM5 (or alternatively C1 or CM4) chip is prepared by covalent coating with anti-human Fc antibody or alternatively a protein A chip is used. Next, IL-2Rβ-Fc or IL2-Rα-Fc is immobilized on the chip. […] Analytes are each exposed to the receptor-modified chip for a suitable amount of time, such as for 1 to 30 minutes, which may for example be 2 minutes or may be 3 minutes and are then washed away for a suitable amount of time, such as 2 to 60 minutes, which may for example be 10 minutes. The resulting binding curves from the dilution series are fit to a 1:1 kinetic model to correlate observed response units (R) to the association and dissociation rate constants, ka and kd: […]

human IL-2Rβ = target: T2, human IL-2Rβ (Homo sapiens, UniProt P14784); test: Biacore binding to human IL-2Rβ-Fc
T2 construct: purchased
T2 sequence (P14784 27-551): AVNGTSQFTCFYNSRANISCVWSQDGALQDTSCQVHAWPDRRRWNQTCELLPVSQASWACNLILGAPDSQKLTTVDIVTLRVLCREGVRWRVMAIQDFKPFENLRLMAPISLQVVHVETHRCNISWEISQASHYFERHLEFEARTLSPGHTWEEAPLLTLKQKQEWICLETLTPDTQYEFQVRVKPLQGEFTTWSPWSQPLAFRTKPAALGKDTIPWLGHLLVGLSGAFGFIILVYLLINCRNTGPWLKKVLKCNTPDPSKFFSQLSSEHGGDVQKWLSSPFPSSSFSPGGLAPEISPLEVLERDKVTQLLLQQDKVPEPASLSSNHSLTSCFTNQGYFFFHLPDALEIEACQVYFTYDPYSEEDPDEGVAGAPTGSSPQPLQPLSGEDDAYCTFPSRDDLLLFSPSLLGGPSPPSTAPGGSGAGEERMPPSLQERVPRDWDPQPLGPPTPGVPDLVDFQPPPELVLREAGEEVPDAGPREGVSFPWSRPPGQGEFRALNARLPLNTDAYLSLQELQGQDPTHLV
Description: as §2

[2] = test system: pSTAT5 in Tregs, CD8+ T cells, NK cells; test: pSTAT5 in lymphocyte subsets of whole human blood (flow cytometry); format: cell-based
Description: (§3) To evaluate the cell type specific immunostimulatory effects of 3 in primary human or monkey cells, whole human or cynomolgus monkey blood from two donors each was incubated with various concentrations of 3 or 13 for 30 minutes and analyzed by flow cytometry for intracellular levels of phosphorylated STAT5 (pSTAT5) in unique cell subsets such as Tregs which predominately express IL-2Rα/β/γ as well as CD8+ T cells (CD8) and NK cells which predominately express IL-2Rβ/γ. Additionally, CD8^+ T cells were further analyzed for CD8^+ CD45RA^+ Naïve (CD8 N) as well as CD8^+ CD45RA^− Memory (CD8 M) subsets. Similar experiments were performed with mouse blood using a different panel of mouse specific antibodies. All subsets were analyzed for median fluorescence intensities of pSTAT5 and EC50 values were calculated for each compound across all cell types.

[3] = test system: pSTAT5 in Tregs, CD8+ T cells, NK cells; test: pSTAT5 in lymphocyte subsets of whole cynomolgus monkey blood (flow cytometry); format: cell-based
Description: as §3

[4] = test system: pSTAT5 in Tregs, CD8+ T cells, NK cells; test: pSTAT5 in lymphocyte subsets of mouse blood (flow cytometry); format: cell-based
Description: [The source words this procedure for another organism and says it was used here with some conditions changed.] as §3, with “Similar experiments were performed with mouse blood using a different panel of mouse specific antibodies.” left out

KD for IL-2Rα compared with 12 (human IL-2Rα): highly comparable KD values
KD for IL-2Rβ compared with 12 (human IL-2Rβ; independent measurement): highly comparable KD values
Substance: 11: Aldesleukin, recombinant human Interleukin-2 (SEQ ID NO:15) [Compound 11]
average fold increase in eosinophil counts ([1]; Day 8): 6.92 fold
average fold increase in lymphocyte counts ([1]; Day 8): 2.77 fold
average fold increase in eosinophil counts ([1]; Day 10): 5.94 fold
average fold increase in lymphocyte counts ([1]; Day 10): 2.79 fold
Lymphocyte Counts ([1]; Study Day 1): 4995 µL⁻¹ and 4670.6 µL⁻¹ and 4845 µL⁻¹ and 4617.6 µL⁻¹
Lymphocyte Counts ([1]; Study Day 4): 3739.1 µL⁻¹ and 2646 µL⁻¹ and 2703.2 µL⁻¹ and 3034 µL⁻¹
Lymphocyte Counts ([1]; Study Day 5): 4144.5 µL⁻¹ and 3990 µL⁻¹ and 3784 µL⁻¹
Lymphocyte Counts ([1]; Study Day 8): 11186 µL⁻¹ and 11088 µL⁻¹ and 8086 µL⁻¹ and 14958 µL⁻¹
Lymphocyte Counts ([1]; Study Day 9): 10260 µL⁻¹ and 10045 µL⁻¹ and 9548 µL⁻¹ and 13878 µL⁻¹
Lymphocyte Counts ([1]; Study Day 10): 8316 µL⁻¹ and 10664 µL⁻¹ and 12079 µL⁻¹ and 14885 µL⁻¹
Lymphocyte Counts ([1]; Study Day 11): 7304 µL⁻¹ and 9640 µL⁻¹ and 8736 µL⁻¹ and 7720 µL⁻¹
Lymphocyte Counts ([1]; Study Day 12): 5652 µL⁻¹ and 9520 µL⁻¹ and 8325 µL⁻¹ and 7518 µL⁻¹
Lymphocyte Counts ([1]; Study Day 15): 6720 µL⁻¹ and 9700 µL⁻¹ and 5468.3 µL⁻¹ and 6198.4 µL⁻¹
Lymphocyte Counts ([1]; Study Day 19): 2385.6 µL⁻¹ and 3965.5 µL⁻¹ and 2067 µL⁻¹ and 3139.5 µL⁻¹
Lymphocyte Counts ([1]; Study Day -4 (Baseline)): 4032 µL⁻¹ and 4514.4 µL⁻¹ and 4189.5 µL⁻¹ and 3564 µL⁻¹
Lymphocyte Counts ([1]; Study Day -5 (Baseline)): 4074 µL⁻¹ and 3530.6 µL⁻¹ and 4719 µL⁻¹ and 4376.3 µL⁻¹
average serum peak IL-5 levels (IL-5): 117.78 pg/mL
IL-5 (IL-5; Study Day -3): 0.28 pg/mL and 0.1895 pg/mL and 0.2445 pg/mL and 0.233 pg/mL
average serum peak IL-6 levels (IL-6): 58.66 pg/mL
IL-6 (IL-6; Study Day 2.25): 6.79 pg/mL and 9.02 pg/mL and 7.69 pg/mL and 9.95 pg/mL
IL-6 (IL-6; Study Day 5): 0.75 pg/mL and 0.81 pg/mL and 0.46 pg/mL and 0.48 pg/mL
IL-6 (IL-6; Study Day 5.25): 3.67 pg/mL and 3.59 pg/mL and 2.42 pg/mL and 4.21 pg/mL

Kd (human IL-2Rβ; Biacore): ~500 nM
Substance: 12: unbiased control recombinant human IL-2 (SEQ ID NO:45) [Compound 12]

pSTAT5 EC50, CD8 ([2]; additional human blood experiments (Table 29), CD8): 4.94 ng/mL
pSTAT5 EC50, NK ([2]; additional human blood experiments (Table 29), NK): 17.59 ng/mL
pSTAT5 EC50, Treg ([2]; additional human blood experiments (Table 29), Treg): 0.047 ng/mL
EC50 for pSTAT5 in NK cells ([2]; human blood, 30 minutes): 6.01 ng/ml
EC50 for pSTAT5 in Tregs ([2]; human blood, 30 minutes): 0.09 ng/ml
pSTAT5 EC50, CD8 ([2]; whole human blood, 30 minutes, CD8+ T cells (Table 27)): 25.69 ng/mL
pSTAT5 EC50, Treg ([3]; whole cynomolgus monkey blood, 30 minutes, Treg): 0.09 ng/mL
EC50 for pSTAT5 in NK cells ([4]; mouse blood): 9,694.74 ng/ml
EC50 for pSTAT5 in Tregs ([4]; mouse blood): 0.37 ng/ml
pSTAT5 EC50, CD8 ([4]; mouse blood, CD8+ T cells): 24,040.56 ng/mL
Substance: 13: his-tagged mammalian expressed control human IL-2 (SEQ ID NO:46) [Compound 13]
Fold Potency Loss vs Human, Treg ([3]; cynomolgus monkey Treg vs human Treg, pSTAT5 EC50): 1
Fold Potency Loss vs Human, CD8 ([4]; mouse CD8 vs human CD8, pSTAT5 EC50): 935.79
Fold Potency Loss vs Human, NK ([4]; mouse NK vs human NK, pSTAT5 EC50): 1613.10
Fold Potency Loss vs Human, Treg ([4]; mouse Treg vs human Treg, pSTAT5 EC50): 4.11
